{"source": "patent US9969766B2", "about": "“20(R)-ginsenoside Rg3 polyacylated derivatives, preparation and application thereof” (priority 2014, dated 2018)", "key": {"[1]": {"system": "human breast cancer Bcap-37 cells", "assay": "Human breast cancer Bcap-37 subcutaneous inoculation in nude mice", "conditions": "po × 14bid", "text": "human breast cancer Bcap-37 model, human lung cancer A549 model, human intestinal cancer LOVO model, human stomach cancer MGC model and human liver cancer QGY model, with tumor cell lines being of the second generation or more, mouse B16 melanoma cell line, mouse Lewis lung cancer model, mouse sarcoma s180 model, all passaged and preserved in Pharmacological Division of Shanghai Institute of Pharmaceutical Industry. 3. Experiment Animals Origins: nude mice, 6-week old, 18-22 g/mouse, provided by Laboratory Animal Center of Chinese Academy of Sciences, Shanghai Branch, with certification No. 2001A032. C57BL/6 mice and Kunming mice, 18-22 g/mouse, provided by Laboratory Animal Center of Chinese Academy of Sciences, Shanghai Branch, with certification SYXK (Shanghai) 2004-0015. Gender: male or female, the same gender for each batch in experiment Animal numbers: 10 mice and 10 nude mice for each of positive control group and test group in experiment, and 20 for negative control group. 4. Experiment Design Dose Settings: doses for 20(R)-ginsenoside Rg3 octo-acetate, 20(R)-ginsenoside Rg3 octo-n-butyrate and 20(R)-ginsenoside Rg3 octo-n-propionate were set as high-dose group (0.3 mg/kg/d), medium-dose group (0.06 mg/kg/d), and low-dose group (0.012 mg/kg/d). Dosage regimen: oral administration, twice daily. human tumor model and cell-inoculated mouse model: po×14 bid; mouse tumor-inoculated model: po×10 bid. Control Trial: negative control group: given with the same volume of 5% CMC-Na as the test group, and the same dosage regimen as the test group. positive control group: […] 5. Experiment Method and Key Steps 5.1 Anti-Tumor Test 5.1.1 Subcutaneous Inoculation Model\n(§1) Tumor cells of vigorous growth stage were taken under sterile condition and made into cell suspensions of about 1-2×10^7/ml by homogenization, the suspensions were inoculated subcutaneously at 0.2 ml/mouse in host mice and repeated on the next day according to the experiment design, the animals in each group were slaughtered after about three weeks, the tumors were collected and weighed, and the tumor inhibition rates were calculated according to the following equation: tumor inhibition rate %=[(average tumor weight of control group-average tumor weight of treatment group)/average tumor weight of control group]×100%\nThe same operation was repeated in human tumor xenograft model, except that the feed, packing, cage and contact instruments were all sterilized under high pressure before use and the nude mice were fed in a laminar flow rack. The tumors and tumor-bearing animal weight gains were dynamically measured (tumor size measured using caliper: long diameter/a, short diameter/b, and tumor bulk=a×b^2/2)."}, "mouse melanoma B16 cells": {"system": "mouse melanoma B16 cells", "assay": "Mouse melanoma B16 tail vein inoculation, lung metastasis", "conditions": "po × 14bid", "text": "(§2) human breast cancer Bcap-37 model, human lung cancer A549 model, human intestinal cancer LOVO model, human stomach cancer MGC model and human liver cancer QGY model, with tumor cell lines being of the second generation or more, mouse B16 melanoma cell line, mouse Lewis lung cancer model, mouse sarcoma s180 model, all passaged and preserved in Pharmacological Division of Shanghai Institute of Pharmaceutical Industry. 3. Experiment Animals Origins: nude mice, 6-week old, 18-22 g/mouse, provided by Laboratory Animal Center of Chinese Academy of Sciences, Shanghai Branch, with certification No. 2001A032. C57BL/6 mice and Kunming mice, 18-22 g/mouse, provided by Laboratory Animal Center of Chinese Academy of Sciences, Shanghai Branch, with certification SYXK (Shanghai) 2004-0015. Gender: male or female, the same gender for each batch in experiment Animal numbers: 10 mice and 10 nude mice for each of positive control group and test group in experiment, and 20 for negative control group. 4. Experiment Design Dose Settings: doses for 20(R)-ginsenoside Rg3 octo-acetate, 20(R)-ginsenoside Rg3 octo-n-butyrate and 20(R)-ginsenoside Rg3 octo-n-propionate were set as high-dose group (0.3 mg/kg/d), medium-dose group (0.06 mg/kg/d), and low-dose group (0.012 mg/kg/d). Dosage regimen: oral administration, twice daily. human tumor model and cell-inoculated mouse model: po×14 bid; mouse tumor-inoculated model: po×10 bid. Control Trial: negative control group: given with the same volume of 5% CMC-Na as the test group, and the same dosage regimen as the test group. positive control group: Cyclophosphamide CTX 30 mg/kg, MMC 2 mg/kg and 5Fu 30 mg/kg by intraperitoneal or intravenous administration, once daily, for seven consecutive days. 5. Experiment Method and Key Steps 5.1 Anti-Tumor Test 5.1.1 Subcutaneous Inoculation Model"}, "mouse sarcoma S180 cells": {"system": "mouse sarcoma S180 cells", "assay": "Mouse sarcoma S180 metastasis model", "conditions": "po × 14bid", "text": "as §2"}, "mouse Lewis lung cancer": {"system": "mouse Lewis lung cancer", "assay": "Mouse Lewis lung cancer (subcutaneous inoculation) metastasis model", "conditions": "po × 14bid", "text": "as §2, §1"}, "[2]": {"system": "human stomach cancer MGC cells", "assay": "Human stomach cancer MGC in-situ inoculation, survival", "conditions": "for Animal body weight (g) Start / Animal body weight (g) end / Average survival (d) X ± SD / Life extension rate T/C × %: po × 14bid", "text": "as §2"}, "[3]": {"system": "human liver cancer QGY cells", "assay": "Human liver cancer QGY liver in-situ inoculation, survival", "conditions": "po × 14bid", "text": "as §2\nUnder sterile condition, the in vivo passage of the second generation of QGY tumor source of vigorous growth stage was prepared into cell suspensions of about 1-2×10^7/ml by homogenization (1:6), and the homogenates were filtered using 100-mesh stainless steel screen, getting ready for use. The nude mice were disinfected routinely and anaesthetized and cut at the xiphoid in the middle of the abdominal cavity to expose the liver, the cell suspensions (0.05 ml) were injected into liver parenchyma using imported 28 ga ½ ml syringes, the abdominal cavity was closed and then sutured layer by layer. The nude mice were fed in the laminar flow rack, with all the feed, packing, cage and contact instruments being sterilized under high pressure before use."}, "[4]": {"assay": "Solubility of the isolated products", "type": "physicochemical"}}, "data": [{"smiles": "CC(=O)OC[C@H]1O[C@@H](OC2CC[C@]3(C)C(CC[C@@]4(C)C3C[C@H](OC(C)=O)C3C([C@@](C)(O)CCC=C(C)C)CC[C@@]34C)C2(C)C)[C@H](OC2O[C@H](COC(C)=O)[C@@H](OC(C)=O)[C@H](OC(C)=O)[C@H]2OC(C)=O)[C@@H](OC(C)=O)[C@@H]1OC(C)=O", "note": "(stereo partly drawn) [Rg3-octo-acetate, 20 (R)-ginsenoside Rg3 octaacetate]", "values": [{"measurement": "Tumor inhibition rate %", "setting": "[1]; 0.012 mg/kg/d", "value": 47.93, "unit": "%"}, {"measurement": "Tumor weight (g) X ± SD", "setting": "[1]; 0.012 mg/kg/d", "value": "0.672 ± 0.07", "unit": "g"}, {"measurement": "Tumor inhibition rate %", "setting": "[1]; 0.06 mg/kg/d", "value": 59.69, "unit": "%"}, {"measurement": "Tumor weight (g) X ± SD", "setting": "[1]; 0.06 mg/kg/d", "value": "0.520 ± 0.08", "unit": "g"}, {"measurement": "Tumor inhibition rate %", "setting": "[1]; 0.3 mg/kg/d", "value": 68.98, "unit": "%"}, {"measurement": "Tumor weight (g) X ± SD", "setting": "[1]; 0.3 mg/kg/d", "value": "0.400 ± 0.09", "unit": "g"}, {"measurement": "Anti-metastasis rate %", "setting": "mouse melanoma B16 cells; 0.012 mg/kg/d", "value": 50.90, "unit": "%"}, {"measurement": "Lung clone numbers (mice) X ± SD", "setting": "mouse melanoma B16 cells; 0.012 mg/kg/d", "value": "23.62 ± 7.0"}, {"measurement": "Anti-metastasis rate %", "setting": "mouse melanoma B16 cells; 0.06 mg/kg/d", "value": 63.87, "unit": "%"}, {"measurement": "Lung clone numbers (mice) X ± SD", "setting": "mouse melanoma B16 cells; 0.06 mg/kg/d", "value": "17.38 ± 7.1"}, {"measurement": "Anti-metastasis rate %", "setting": "mouse melanoma B16 cells; 0.3 mg/kg/d", "value": 79.98, "unit": "%"}, {"measurement": "Lung clone numbers (mice) X ± SD", "setting": "mouse melanoma B16 cells; 0.3 mg/kg/d", "value": "9.63 ± 7.9"}, {"measurement": "Anti-metastasis rate %", "setting": "mouse sarcoma S180 cells; 0.012 mg/kg/d", "value": 51.50, "unit": "%"}, {"measurement": "Lung clone numbers (mice) X ± SD", "setting": "mouse sarcoma S180 cells; 0.012 mg/kg/d", "value": "1.43 ± 7.1"}, {"measurement": "Anti-metastasis rate %", "setting": "mouse sarcoma S180 cells; 0.06 mg/kg/d", "value": 65.80, "unit": "%"}, {"measurement": "Lung clone numbers (mice) X ± SD", "setting": "mouse sarcoma S180 cells; 0.06 mg/kg/d", "value": "1.01 ± 7.2"}, {"measurement": "Anti-metastasis rate %", "setting": "mouse sarcoma S180 cells; 0.3 mg/kg/d", "value": 78.94, "unit": "%"}, {"measurement": "Lung clone numbers (mice) X ± SD", "setting": "mouse sarcoma S180 cells; 0.3 mg/kg/d", "value": "0.62 ± 7.3"}, {"measurement": "Anti-metastasis rate %", "setting": "mouse Lewis lung cancer; 0.012 mg/kg/d", "value": 50.30, "unit": "%"}, {"measurement": "Lung clone numbers (mice) X ± SD", "setting": "mouse Lewis lung cancer; 0.012 mg/kg/d", "value": "1.38 ± 0.13"}, {"measurement": "Anti-metastasis rate %", "setting": "mouse Lewis lung cancer; 0.06 mg/kg/d", "value": 58.90, "unit": "%"}, {"measurement": "Lung clone numbers (mice) X ± SD", "setting": "mouse Lewis lung cancer; 0.06 mg/kg/d", "value": "1.14 ± 0.12"}, {"measurement": "Anti-metastasis rate %", "setting": "mouse Lewis lung cancer; 0.3 mg/kg/d", "value": 69.96, "unit": "%"}, {"measurement": "Lung clone numbers (mice) X ± SD", "setting": "mouse Lewis lung cancer; 0.3 mg/kg/d", "value": "0.84 ± 0.15"}, {"measurement": "Animal body weight (g) Start", "setting": "[2]; 0.012 mg/kg/d", "value": 19.8, "unit": "g"}, {"measurement": "Animal body weight (g) end", "setting": "[2]; 0.012 mg/kg/d", "value": 25.4, "unit": "g"}, {"measurement": "Average survival (d) X ± SD", "setting": "[2]; 0.012 mg/kg/d", "value": "38.84 ± 0.14", "unit": "days"}, {"measurement": "Life extension rate T/C × %", "setting": "[2]; 0.012 mg/kg/d", "value": 170.56, "unit": "%"}, {"measurement": "Animal body weight (g) Start", "setting": "[2]; 0.06 mg/kg/d", "value": 19.6, "unit": "g"}, {"measurement": "Animal body weight (g) end", "setting": "[2]; 0.06 mg/kg/d", "value": 24.6, "unit": "g"}, {"measurement": "Average survival (d) X ± SD", "setting": "[2]; 0.06 mg/kg/d", "value": "41.21 ± 0.11", "unit": "days"}, {"measurement": "Life extension rate T/C × %", "setting": "[2]; 0.06 mg/kg/d", "value": 180.98, "unit": "%"}, {"measurement": "Animal body weight (g) Start", "setting": "[2]; 0.3 mg/kg/d", "value": 19.7, "unit": "g"}, {"measurement": "Animal body weight (g) end", "setting": "[2]; 0.3 mg/kg/d", "value": 24.1, "unit": "g"}, {"measurement": "Average survival (d) X ± SD", "setting": "[2]; 0.3 mg/kg/d", "value": "46.04 ± 0.12", "unit": "days"}, {"measurement": "Life extension rate T/C × %", "setting": "[2]; 0.3 mg/kg/d", "value": 202.19, "unit": "%"}, {"measurement": "life-prolonging effect versus positive control group", "setting": "[2]; high-dose groups, summary of Table 7-9: human stomach, intestinal and liver cancer", "value": "better than the positive control group"}, {"measurement": "Animal body weight (g) Start", "setting": "[3]; 0.012 mg/kg/d", "value": 19.1, "unit": "g"}, {"measurement": "Animal body weight (g) end", "setting": "[3]; 0.012 mg/kg/d", "value": 25.2, "unit": "g"}, {"measurement": "Average survival (d) X ± SD", "setting": "[3]; 0.012 mg/kg/d", "value": "37.26 ± 4.5", "unit": "days"}, {"measurement": "Life extension rate T/C × %", "setting": "[3]; 0.012 mg/kg/d", "value": 159.58, "unit": "%"}, {"measurement": "Animal body weight (g) Start", "setting": "[3]; 0.06 mg/kg/d", "value": 19.1, "unit": "g"}, {"measurement": "Animal body weight (g) end", "setting": "[3]; 0.06 mg/kg/d", "value": 24.3, "unit": "g"}, {"measurement": "Average survival (d) X ± SD", "setting": "[3]; 0.06 mg/kg/d", "value": "38.90 ± 4.1", "unit": "days"}, {"measurement": "Life extension rate T/C × %", "setting": "[3]; 0.06 mg/kg/d", "value": 166.59, "unit": "%"}, {"measurement": "Animal body weight (g) Start", "setting": "[3]; 0.3 mg/kg/d", "value": 19.3, "unit": "g"}, {"measurement": "Animal body weight (g) end", "setting": "[3]; 0.3 mg/kg/d", "value": 24.8, "unit": "g"}, {"measurement": "Average survival (d) X ± SD", "setting": "[3]; 0.3 mg/kg/d", "value": "42.49 ± 5.0", "unit": "days"}, {"measurement": "Life extension rate T/C × %", "setting": "[3]; 0.3 mg/kg/d", "value": 181.98, "unit": "%"}, {"measurement": "Solubility in ethanol", "setting": "[4]; ethanol", "value": "soluble"}, {"measurement": "Solubility in water", "setting": "[4]; water", "value": "soluble"}]}]}
